SMILES strings stand for the structures.

Type in all cases: cell-based, human
The test system of assay [1] is Intestinal epithelial cells of the Caco-2 line. Nature of the assay: Iron fixation at the cellular level with added chemical donor of NO (Example 2). The settings on record: SNAP between 0 and 1 μM added to tubes 2 (Lf-^59Fe) and 4 (Lf-^59Fe + ^59Fe) of Table II. The method, then: (§1) Intestinal epithelial cells of the Caco-2 line derived from a colon cancer were incubated in a proportion of 2×10^6 cells per ml in an RPMI 1640 medium buffered at pH 7.4, in the presence of 25 mmolar of Hepes, containing 15% (v/v) of fetal calf serum, 2 mmol/l of L-glutamine and 1% (v/v) of a solution of streptomycin-penicillin, sold by the company Gibco.
Tubes of intestinal epithelial cell cultures were prepared and cultured under the same conditions as those described above in Example 1.
Iron fixation at the cellular level was then initiated by adding Lf-^59Fe and/or labeled iron.
One of the cell culture tubes received none of the constituents, so as to serve as a control.
The distribution of the constituents, and also the concentrations at which they were used, appear in Table II below:
The culture tubes then received SNAP in amounts ranging between 0 and 1 μM, and the cellular fixation of radiolabeled iron were then measured using a device for measuring the radioactivity.

Assay [2] has the same test system. Nature of the assay: Degree of iron fixation at the cellular level as a function of concentrations (Example 3). The settings on record: Caco-2 cells, after 72 hours of incubation; tube contents per Table III (mg/ml); Control = 1. The method, then:
as §1
Twelve tubes of epithelial cell cultures were prepared according to the conditions described above in Example 1.
Iron fixation at the cellular level was then initiated by adding Lf-^59Fe and/or labeled iron and/or L-arginine.
One of the cell culture tubes received none of these three constituents, so as to act as a control.
The distribution of the constituents, and also the concentrations at which they were used, appear in Table III below:
The degree of cellular fixation of iron was measured after 72 hours of incubation using a device for measuring the radioactivity.

The test system is the same in assay [3]. In words: Iron fixation at the cellular level with added inhibitor of the L-arginine pathway (Example 1, FIG. 2). The settings on record: 1 mM added to the medium of tubes 1, 2, 4 and 8 of Table I; virtually returned to the degree without L-arginine (tube 2). The method, then:
as §1
The cells were then incubated for a period of 16 hours in Eppendorf tubes kept stirring for the final 2 hours of the culture period. Throughout the incubation period, the amount of cellular iron was measured by centrifugation pellet of the cells a first time after 30 minutes (t=0.5), then after one hour (t=1), and then every hour (t=2 to t=16), using a device for measuring the radioactivity.

Turning to `CC(=O)N[C@H](C(=O)O)C(C)(C)SN=O` (racemic) [SNAP, S-nitroso-N-acetylpenicillamine], the “Degree of iron fixation in the epithelial cells after addition of SNAP” value in assay [1] is reported as “increase the degree of iron fixation in the epithelial cells”.

Consider `N=C(N)NCCC[C@H](N)C(=O)O` [Cell culture tube 8, L-arginine, reference compound], for which the “Degree of iron fixation in the cells (cpm ^59Fe)” value in assay [2] is recorded as 1 cpm ^59Fe.

For `COC(=O)[C@@H](N)CCCNC(=N)N[N+](=O)[O-]` [L-NAME, N^ω-nitro-L-arginine methyl ester], the “Degree of iron fixation at the cellular level after addition of L-NAME” value in assay [3] is “very large decrease in the degree of iron fixation at the cellular level”.

The record behind these values is US6984624B2, “Composition containing an iron complexing protein and a precursor of nitrogen monoxide metabolism and/or a chemical donor of nitrogen monoxide and uses thereof” (Isocell S.A., priority 2000, dated 2006).
